Experimental data taken from US8586768B2, “Design, synthesis and functional characterization of rottlerin analogs” (priority 2009, dated 2013).

Tests used:
[1] = Activity of simple rottlerin analogs compared with rottlerin (test not named)
Description: Design and Synthesis of Novel Rottlerin Analogs. Since Rottlerin has proven to be a difficult target to make synthetically, analogs have been developed and tested in an attempt to localize the region of activity and improve that activity. Initially, simple analogs of Rottlerin itself, obtained from CalBioChem (La Jolla, Calif., Cat #557370), were prepared and analyzed. Two compounds gave important results, one representing a simplified methylene linkage present in the parent compound (PK103), and the other (PK203) came from a simple bromination of natural Rottlerin.

N27 cells = experiment: MPP+-induced DNA fragmentation in N27 cells; type: cell-based, rat; conditions: co-treated with 3 μM
From the text: To determine whether PK analogs are neuroprotective against MPP+-induced increases in caspase-3 and DNA fragmentation, their effects on MPP+-induced increases in caspase-3 activity and DNA fragmentation, markers of apoptotic cell death, were examined. All three analogs PK101-103 protected N27 cells from MPP+-induced caspase-3 activation and DNA fragmentation. […] (**p<0.01 and ***p<0.001, compared to vehicle control; #p<0.05, ##p<0.01, compared to MPP+ treatment).

PKAα = target: T1, PKAα (Homo sapiens, UniProt P17612); experiment: In-vitro kinase profiling, radioisotope screening assay (Signal Chem); type: biochemical; conditions: 5 μM compound, 50 μM ATP, vs vehicle control; negative = inhibition
T1 construct: purchased Signal Chem (Richmond, BC, Canada)
Description: (§1) Kinase profiling of PK analogs. The inhibitory effect of lead PK analogs were tested against a panel of 15 protein kinase targets (TABLE 1) to develop better lead candidates without “off” target effects. The selectivity assay was performed at Signal Chem™ (Richmond, BC, Canada) by profiling against protein kinase targets using the “Gold Standard” radioisotope screening assay format. This assay format gave the highest signal noise ratio and allowed the direct measurement of catalytic activity of a protein kinase.
(§2) All assays were performed in triplicate in a 96-well assay format and the % error between triplicates is <10%. Protein kinase assays was performed in the presence of 50 μM ATP at 30° C. for 15 min. The activity of the enzymes in the presence of 5 μM PK analogs was compared to that in the vehicle control and expressed as a percent change in activity relative to that observed in the vehicle control. In TABLE 1, the results are expressed as percent activity change compared to control. The intra-assay variability was determined to be less than 10%. Inhibition of target activity by the compound is shown by a negative value, while activation of target activity is shown by positive value, with values >10% considered to be highly significant.

PKCη = target: T2, PKCη (Homo sapiens, UniProt P24723); experiment: as above; type: biochemical; conditions: 5 μM compound, 50 μM ATP, vs vehicle control; negative = inhibition
T2 construct: purchased Signal Chem (Richmond, BC, Canada)
Description: as §1, §2

PKCε = target: T3, PKCε (Homo sapiens, UniProt Q02156); experiment: as above; type: biochemical; conditions: for % activity change: 5 μM compound, 50 μM ATP, vs vehicle control, negative = inhibition
T3 construct: purchased Signal Chem (Richmond, BC, Canada)
T3 sequence (Q02156 1-737): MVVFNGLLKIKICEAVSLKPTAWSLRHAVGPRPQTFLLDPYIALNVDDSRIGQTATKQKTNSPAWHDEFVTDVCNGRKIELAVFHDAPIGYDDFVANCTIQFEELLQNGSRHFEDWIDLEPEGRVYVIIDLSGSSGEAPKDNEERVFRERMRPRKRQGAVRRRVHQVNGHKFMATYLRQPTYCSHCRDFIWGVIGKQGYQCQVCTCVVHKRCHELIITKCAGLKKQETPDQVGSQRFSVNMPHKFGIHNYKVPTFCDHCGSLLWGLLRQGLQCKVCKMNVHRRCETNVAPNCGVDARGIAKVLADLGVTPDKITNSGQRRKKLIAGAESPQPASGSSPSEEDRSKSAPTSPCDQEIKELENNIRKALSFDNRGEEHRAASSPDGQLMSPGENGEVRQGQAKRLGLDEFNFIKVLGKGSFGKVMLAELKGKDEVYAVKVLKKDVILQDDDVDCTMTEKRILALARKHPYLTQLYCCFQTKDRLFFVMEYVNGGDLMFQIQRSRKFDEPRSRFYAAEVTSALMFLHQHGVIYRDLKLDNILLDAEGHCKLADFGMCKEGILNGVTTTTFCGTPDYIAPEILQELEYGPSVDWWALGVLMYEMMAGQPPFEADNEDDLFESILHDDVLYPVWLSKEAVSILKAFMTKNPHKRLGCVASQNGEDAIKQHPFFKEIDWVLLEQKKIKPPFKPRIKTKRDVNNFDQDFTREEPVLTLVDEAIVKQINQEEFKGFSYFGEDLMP
Description: as §1, §2

AKT1 = target: T4, AKT1 (Homo sapiens, UniProt P31749); experiment: as above; type: biochemical; conditions: for % activity change: 5 μM compound, 50 μM ATP, vs vehicle control, negative = inhibition
T4 construct: purchased Signal Chem (Richmond, BC, Canada)
Description: as §1, §2

CamK2a = target: T5, CamK2a (Homo sapiens, UniProt Q9UQM7); experiment: as above; type: biochemical; conditions: 5 μM compound, 50 μM ATP, vs vehicle control; negative = inhibition
T5 construct: purchased Signal Chem (Richmond, BC, Canada)
Description: as §1, §2

[2] = tested on: mouse primary mesencephalic neuronal cultures; experiment: 3H-dopamine uptake assay after MPP+ exposure; type: cell-based; conditions: 10 μM MPP+, 3 μM compound, 48 h
Description: Lead PK analogs protect against MPP^+-induced loss of TH+ neurons in primary mesencephalic cultures. To determine if lead PK analogs protect against degeneration of nigral dopaminergic neurons resulting from MPP+ neurotoxicity, mouse primary mesencephalic neuronal cultures (prepared from E16-18-day-old mice embryos) were exposed to 10 μM MPP^+ in the presence or absence of 3 μM of lead PK analogs, PK103, PK202, PK302 and parent compound rottlerin for 48 h, and then assessed the viability of dopaminergic neurons using the ^3H-dopamine uptake assay. (***p<0.005 (vehicle versus MPTP. ##p<0.01 (PK analogs versus MPTP)). Mazindol, a dopamine reuptake inhibitor, was used as a positive control for the assay.

PKCδ = PKCδ (Homo sapiens, UniProt Q05655); conditions: background statement; cited from earlier work
[3] = 5 μM concentration, given as positive inhibition, read-out: inhibited by % compared to control

T2 sequence (P24723 whole entry): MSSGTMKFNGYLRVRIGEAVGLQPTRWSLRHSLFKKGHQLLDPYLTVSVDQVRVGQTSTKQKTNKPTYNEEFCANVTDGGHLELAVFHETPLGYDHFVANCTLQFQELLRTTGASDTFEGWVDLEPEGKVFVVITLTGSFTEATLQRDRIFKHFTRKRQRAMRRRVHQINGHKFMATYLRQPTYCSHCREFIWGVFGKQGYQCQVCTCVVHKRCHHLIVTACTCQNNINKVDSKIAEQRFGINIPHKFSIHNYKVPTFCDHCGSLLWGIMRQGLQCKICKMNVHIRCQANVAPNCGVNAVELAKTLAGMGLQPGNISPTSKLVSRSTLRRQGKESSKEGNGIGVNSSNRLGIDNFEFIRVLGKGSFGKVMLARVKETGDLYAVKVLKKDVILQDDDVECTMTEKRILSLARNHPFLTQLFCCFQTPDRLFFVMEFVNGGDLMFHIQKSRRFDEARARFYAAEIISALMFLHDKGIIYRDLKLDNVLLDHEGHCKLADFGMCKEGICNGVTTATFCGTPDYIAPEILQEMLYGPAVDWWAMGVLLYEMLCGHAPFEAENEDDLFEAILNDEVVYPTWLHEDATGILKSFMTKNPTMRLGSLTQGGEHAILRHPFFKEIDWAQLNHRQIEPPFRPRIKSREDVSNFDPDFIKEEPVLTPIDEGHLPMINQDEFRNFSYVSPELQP
T5 sequence (Q9UQM7 whole entry): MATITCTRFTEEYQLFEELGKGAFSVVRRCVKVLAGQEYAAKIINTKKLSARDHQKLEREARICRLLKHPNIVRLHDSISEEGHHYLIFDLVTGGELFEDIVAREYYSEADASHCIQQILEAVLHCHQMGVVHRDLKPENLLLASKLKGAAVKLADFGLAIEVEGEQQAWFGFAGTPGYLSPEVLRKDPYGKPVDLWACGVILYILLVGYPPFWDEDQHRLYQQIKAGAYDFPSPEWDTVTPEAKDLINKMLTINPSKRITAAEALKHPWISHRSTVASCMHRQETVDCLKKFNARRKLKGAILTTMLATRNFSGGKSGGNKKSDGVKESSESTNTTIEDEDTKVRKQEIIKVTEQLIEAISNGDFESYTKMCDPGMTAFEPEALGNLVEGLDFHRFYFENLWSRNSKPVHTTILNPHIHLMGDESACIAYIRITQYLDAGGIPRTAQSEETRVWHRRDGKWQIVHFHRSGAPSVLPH
T4 sequence (P31749 whole entry): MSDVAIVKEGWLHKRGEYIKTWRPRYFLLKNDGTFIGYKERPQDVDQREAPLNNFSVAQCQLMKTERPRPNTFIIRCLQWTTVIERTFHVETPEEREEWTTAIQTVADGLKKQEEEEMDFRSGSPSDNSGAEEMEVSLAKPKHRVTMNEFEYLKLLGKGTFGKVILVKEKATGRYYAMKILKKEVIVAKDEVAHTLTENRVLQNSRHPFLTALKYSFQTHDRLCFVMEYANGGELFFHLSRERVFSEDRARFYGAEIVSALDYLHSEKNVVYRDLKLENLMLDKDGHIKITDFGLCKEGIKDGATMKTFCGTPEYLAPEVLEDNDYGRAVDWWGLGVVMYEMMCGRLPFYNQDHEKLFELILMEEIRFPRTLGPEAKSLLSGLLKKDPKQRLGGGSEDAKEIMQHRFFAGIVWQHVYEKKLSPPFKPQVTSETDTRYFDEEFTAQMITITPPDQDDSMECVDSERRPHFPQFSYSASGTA
PKCδ, sequence (Q05655 whole entry): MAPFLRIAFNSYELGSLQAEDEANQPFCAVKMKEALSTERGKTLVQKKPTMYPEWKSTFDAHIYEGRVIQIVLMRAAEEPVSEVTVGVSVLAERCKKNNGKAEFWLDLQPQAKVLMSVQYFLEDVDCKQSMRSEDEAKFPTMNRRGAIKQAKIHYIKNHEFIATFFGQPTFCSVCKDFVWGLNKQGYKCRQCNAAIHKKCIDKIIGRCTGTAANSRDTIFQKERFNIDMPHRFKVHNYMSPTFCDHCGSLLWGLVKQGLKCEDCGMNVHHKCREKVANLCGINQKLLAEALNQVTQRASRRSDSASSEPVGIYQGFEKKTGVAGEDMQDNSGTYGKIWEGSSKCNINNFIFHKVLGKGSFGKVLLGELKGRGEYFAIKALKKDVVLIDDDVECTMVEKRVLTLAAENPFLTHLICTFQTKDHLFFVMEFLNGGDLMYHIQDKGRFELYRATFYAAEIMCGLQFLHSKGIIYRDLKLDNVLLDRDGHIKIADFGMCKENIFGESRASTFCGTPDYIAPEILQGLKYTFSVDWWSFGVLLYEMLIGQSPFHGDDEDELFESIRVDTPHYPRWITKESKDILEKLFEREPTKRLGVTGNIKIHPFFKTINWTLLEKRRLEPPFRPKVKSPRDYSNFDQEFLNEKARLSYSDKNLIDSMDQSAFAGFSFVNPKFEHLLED

| Compound | activity compared with Rottlerin [1] | blockage of MPP+-induced DNA fragmentation (N27 cells) | % activity change (PKAα) [%] | % activity change (PKCη) [%] | % activity change (PKCε) [%] | % activity change (AKT1) [%] | % activity change (CamK2a) [%] | inhibited by % compared to control (AKT1; 5 μM concentration, given as positive inhibition) [%] | inhibition at 5 µM (PKCε; [3]) [%] | inhibition at 5 µM (AKT1; [3]) [%] | protection against MPP+-induced loss of dopaminergic neurons (dopamine uptake) [2] | IC50 (PKCδ) [µM] |
| --- | --- | --- | --- | --- | --- | --- | --- | --- | --- | --- | --- | --- |
| Oc1cc(O)c(Cc2c(O)cc(O)cc2O)c(O)c1 [PK103] | less activity than Rottlerin | significant blockage | 3 | 7 | 5 | −6 | 6 |  |  |  |  |  |
| CC(=O)c1c(O)c(C)c(O)c(Cc2c(O)c3c(c4c2OC(c2ccccc2)CC4=O)OC(C)(C)C=C3)c1O (stereo not drawn) [PK202] |  |  | 10 | 15 | −3 | −12 | 6 | 12 |  |  |  |  |
| CC(=O)c1c(O)c(C)c(O)c(Cc2c(O)c3c(c(C(=O)/C=C/c4ccccc4)c2O)OC(C)(C)C=C3)c1O [Rottlerin, (E)-1-[6-[(3-acetyl-2,4,6-trihydroxy-5-methylphenyl)methyl]-5,7-dihydroxy-2,2-dimethylchromen-8-yl]-3-phenylprop-2-en-1-one] |  |  | 1 | 12 | −25 | −14 | 7 |  | 25 | 14 | protected | 3 to 6 |
| CC1(C)C=Cc2c(O)cc(O)c(C(=O)/C=C/c3ccccc3)c2O1 [PK302] |  |  | 1 | 19 | 6 | −10 | 5 |  |  |  |  |  |
